Earlier results in patent US20120231150A1, “Digestive Enzyme Inhibitor and Methods of Use” (TATE & LYLE INGREDIENTS AMERICAS, LLC, priority 2011, published 2012).

System: postprandial blood glucose
Settings: use to control blood sugar levels

C[C@H]1O[C@H](O[C@H]2[C@H](O)[C@@H](O)[C@@H](O[C@H]3[C@H](O)[C@@H](O)C(O)O[C@@H]3CO)O[C@@H]2CO)[C@H](O)[C@@H](O)[C@@H]1N[C@H]1C=C(CO)[C@@H](O)[C@H](O)[C@H]1O (stereo partly shown) [Acarbose]
side effects: undesirable side effects such as gas, bloating, diarrhea
